These results are taken from patent publication US20080248993A1, “Modified Beta Thymosin Peptides” (REGENERX BIOPHARMACEUTICALS, INC., priority 2005, published 2008).

The Kd is the free concentration of one partner at which half of the binding sites on the other are occupied at equilibrium, for simple one-to-one binding.

Read-outs that look alike come from different tables or passages of the source.

The assay deals with G-actin. The experiment in a line: G-actin binding affinity (ultrafiltration of free and bound peptide, HPLC of the ultrafiltrate). The procedure:
Tests were conducted to determine the G-actin binding affinity of Tβ4^leu as compared to native Tβ4. The experiments were repeated twice and in triplicate, with the results shown below (averages from 3 experiments):
The lower values in the case of Tβ4 are caused by its sulfoxide. Tβ4 plus Tβ4-sulfoxide was determined by amino acid analysis. […] Thus the real concentration of Tβ4 in the tests are lower and the decrease of free Tβ4 is higher when compared to non-oxidized Tβ4. The decrease of free beta-thymosin was measured. G-actin bound Tβ4 and free Tβ4 were separated by ultrafiltration and the concentration of Tβ4 in the ultrafiltrate was measured by HPLC. The procedure utilized is described in Huff et al., FEPS Letters, 414:39-44 (1997).

The mark [1] stands for this setting: First determination, averages from 3 experiments, read-out: Kd, G-actin binding.
Where [2] appears, read: Second determination, averages from 3 experiments, read-out: Kd, G-actin binding.

Consider “Tβ4: Native 43 amino acid, 4.9 kDa polypeptide with methionine at position 6; comparator”, for which the equilibrium dissociation constant (Kd) (Example 8, comparison of Tβ4-sulfone with Tβ4 and Tβ4-sulfoxide, read-out: Kd value of the complex with G-actin) was found to be 1000 nM; the dissociation constant (Kd) under setting [1] stood at 1280 nM; the Kd under setting [2] was found to be 540 nM.
Regarding “Tβ4^leu: Thymosin β4 with leucine substituted for methionine at position 6 (SDKPDLAEIEKFDKSKLKKTETQEKNPLPSKETIEQEKQAGES; not fully specified; Thymosin beta-4; UniProt P62328 2-44, looked up, variant M6L)”, the Kd runs as follows: under setting [1], 1360 nM; under setting [2], 990 nM. Moreover, the “G-actin binding, in words” value (qualitative statement) is “substantial actin-binding activity”.
